# Test results from US6903116B2, “Methods of treating cancer using a heat shock factor activity inhibitor” (Kaneka Corp., priority 1997, dated 2005).
# Key:
# [1] = tested on: promoter region including the HSE sequence for HSP47; test: Reporter protein expression suppression, stable transformant A (HSE/HSP47 promoter β-galactosidase); format: cell-based, Chinese hamster; conditions: heat shock 42° C. 90 min, relative to DMSO
# Excerpt: A plasmid was produced in which a β-galactosidase gene was located downstream of a promoter region including the HSE sequence for HSP47. […] Chinese hamster ovary (CHO) cells were transfected with the plasmid to obtain stable transformant […]. These stable transformants were pre-treated with Compounds 101, 102 and 103 above and Compound C (1-acetyl-3-benzo-(1,3)dioxole-5-ylmethylene-pyrrolidin-2-one; this compound is represented by general formula (I) of the present invention wherein X is —CH2— and R^1 is acetyl) in a CO2 incubator at 37° C. for 60 min. Then, the transformants were subjected to a heat shock of 42° C. for 90 min, recovered at 37° C. for 2 hours, and incubated at a room temperature for 30 min with 4-methylumbelliferyl-β-D-galactoside as a substrate for the activity of β-galactosidase expressed in the cell. Then, the fluorescence was measured (excitation at 365 nm, emission at 450 nm). The amount of β-galactosidase expressed after a treatment with test compounds or the known HSF and HSP inhibitor quercetin as a control agent was divided by the amount of β-galactosidase expressed after a treatment with dimethylsulfoxide (DMSO) as a solvent control, thereby calculating the expression rate (%) as shown in Table 1.
# SV40 early promoter = test: Reporter protein expression suppression, stable transformant B (SV40 early promoter β-galactosidase); format: cell-based, Chinese hamster; conditions: heat shock 42° C. 90 min, relative to DMSO
# [2] = tested on: HSP70 (inducible type) mRNA; test: Transcription suppression of HSP70 (inducible type) mRNA by Northern hybridization; format: cell-based; conditions: COLO320DM cells, heat shock 42° C. 90 min; for Transcription Amount of HSP70 (induced type): 100 μM, DMSO = 1.0
# Experimental: COLO320DM cells (ATCC CCL-220) were pre-treated with Compounds 101, 102 and 103 in a CO2 incubator at 37° C. for 60 min using 10% FCS, DMEM medium (Gibco BRL), after which the cell was subjected to a heat shock of 42° C. for 90 min. Immediately thereafter, the treated cells were collected, and total RNA was extracted from the cells by using the acid guanidine thiocyanate phenol chloroform (AGPC) method. The total RNA was electrophoresed, transferred to a nylon filter, and the amounts of HSP mRNA were compared among experimental groups by using the Northern hybridization method. cDNA of HSP70 (inducible type) labeled with [α-^32P] dCTP was used as a probe, and cDNA of β-actin was used as an internal control. […] Table 2 provides comparison in the amount of transcription of HSP70 (inducible type) among cells which were subjected to a heat shock after treatment with the respective compounds, with the amount of induced transcription in a cell treated with the control solvent DMSO being 1.0.
# HSP40 = test: HSP expression induction suppression by 2-dimensional electrophoresis, HSP40; format: cell-based; parameters: key: ↑↑↑: Not Suppressed (Strongly Induced); ↓: Slightly Suppressed; ↓↓: Suppressed; ↓↓↓: Strongly Suppressed; conditions: 100 μM; COLO320DM cells; compared with DMSO control
# Experimental: (§1) COLO320DM cells were pre-treated with Compounds 101, 102 and 103 at 37° C. for 60 min, followed by application of a heat shock at 42° C. for 90 min, and recovery at 37° C. for 2 hours. Then, the media were replaced with methionine-free media, and the cells were treated at 37° C. for 1 hour with ^35S-methionine to label newly synthesized proteins.
# (§2) The cell lysate was obtained, subjected to an isoelectric focusing as the first dimension and then to an expansion by SDS-PAGE as the second dimension. Then, the gel was subjected to fluorography so as to compare between the amounts of HSP synthesized with and without heat induction. Comparison between the amounts of β-actin synthesized as an internal control with and without heat induction confirmed that the other proteins were normally synthesized.
# HSP47 = test: HSP expression induction suppression by 2-dimensional electrophoresis, HSP47; format: cell-based; parameters: key: ↑↑↑: Not Suppressed (Strongly Induced); ↓: Slightly Suppressed; ↓↓: Suppressed; ↓↓↓: Strongly Suppressed; conditions: 100 μM; COLO320DM cells; compared with DMSO control
# Experimental: as §1, §2
# HSP70 = test: HSP expression induction suppression by 2-dimensional electrophoresis, HSP70; format: cell-based; parameters: key: ↑↑↑: Not Suppressed (Strongly Induced); ↓: Slightly Suppressed; ↓↓: Suppressed; ↓↓↓: Strongly Suppressed; conditions: 100 μM; COLO320DM cells; compared with DMSO control
# Experimental: as §1, §2
# HSP90 = test: HSP expression induction suppression by 2-dimensional electrophoresis, HSP90; format: cell-based; parameters: key: ↑↑↑: Not Suppressed (Strongly Induced); ↓: Slightly Suppressed; ↓↓: Suppressed; ↓↓↓: Strongly Suppressed; conditions: 100 μM; COLO320DM cells; compared with DMSO control
# Experimental: as §1, §2
# HSP100 = test: HSP expression induction suppression by 2-dimensional electrophoresis, HSP100; format: cell-based; parameters: key: ↑↑↑: Not Suppressed (Strongly Induced); ↓: Slightly Suppressed; ↓↓: Suppressed; ↓↓↓: Strongly Suppressed; conditions: 100 μM; COLO320DM cells; compared with DMSO control
# Experimental: as §1, §2
# β-actin = test: 2-dimensional electrophoresis, β-actin internal control; format: cell-based; conditions: 100 μM; COLO320DM cells
# Experimental: as §1, §2
# COLO320DM cells = test: Cell heat resistance suppression, colony formation assay; format: cell-based; conditions: 100 μM; pre-heating 42° C. 90 min, then 45° C. 60 min; all colonies counted
# Experimental: COLO320DM cells were pre-treated with the above-described compounds at 37° C. for 60 min, followed by pre-heating by application of a heat shock of 42° C. for 90 min. The cells were further treated at 37° C. for 60 min. Then, the media were replaced respectively with compound-free media, and the cells were further incubated at 37° C. for 60 min. Thereafter, the cells were treated at 45° C. for 60 min, and cultured for about 10 days followed by measurement of the number of surviving cells as the number of colonies using a colony formation assay. […] The number of colonies formed without the treatment at 45° C. was substantially the same among all of the drugs.
# The compounds of the present invention clearly confirmed to have the inhibitory effect on the acquisition of cell heat resistance, which is greater than that obtained with the known inhibitor quercetin. The surviving fraction was calculated according to the following formula: Surviving Fraction (%)=A/B×100 • A: Cell Survival Fraction With Treatment at 45° C. for 60 min • B: Cell Survival Fraction Without Treatment at 45° C. Cell Survival Fraction=C/D • C: Number of Surviving Cells • D: Number of Cells Seeded
# [3] = Antidepressant effect in forced swimming test; format: in vivo; conditions: 100 mg/kg orally once, Wistar male rat; for No-Movement Period: 5-minute test; for Suppression Rate (%): versus physiological saline
# Experimental: The experiment was conducted as a partial modification of the Porsolt, R. D. et al. method (Eur. J. Pharm., 47: 379, 1978). In particular, a Wistar male rat (5 weeks of age, weight: 130-150 g) was dropped into water (temperature: 25° C.) about 15 cm deep in a glass cylinder having an inner diameter of 18 cm and a height of 40 cm. The rat was taken out after 15 min, dried and put back into a home cage. […] One hundred mg/kg of each test compound, suspended in a physiological saline, was orally administered once before the 5-minute test so as to examine the antidepression effect. One hundred mg/kg of imipramine, a known antidepressant, as a control drug and 5 ml/kg of a physiological saline as a control were similarly orally administered. A shortened no-movement period was calculated as a suppression rate according to the following formula: Suppression Rate (%)=(E−F)/E×100 • E: No-Movement Period with Physiological Saline • F: No-Movement Period with Test Compound
# [4] = tested on: murine carcinoma cell (SCC VII); test: Inhibitory effect on cancer heat resistance acquisition, tumor growth delay assay; format: in vivo, C3H/He mice
# Experimental: A murine carcinoma cell (SCC VII) was implanted in the right leg of C3H/He mice (male, about 10 mice for each group), and the experiment was started when the tumor became about 1 cm in diameter. The tumor was heated by soaking the tumor site of each mouse under general anaesthesia into a constant temperature bath at 44° C. The inhibitory effect on the heat resistance acquisition by cancer cell was examined by a growth delay assay on the tumor. Two hundred mg/kg of each test compound, suspended in an olive oil, was intraperitoneally administered once 6 hours before the first heating. The first heating was performed for 10 minutes (H1), and the second heating was performed for 30 minutes (H2), with a recovery period of 8 hours at room temperature between the first heating and the second heating.
Structure (SMILES),Expression Rate (%) Transformant A ([1]; 5 μM) [%],Expression Rate (%) Transformant A ([1]; 50 μM) [%],Expression Rate (%) Transformant B (SV40 early promoter; 5 μM) [%],Expression Rate (%) Transformant B (SV40 early promoter; 50 μM) [%],Transcription Amount of HSP70 (induced type) [2],Suppression of mRNA transcription of HSP70 (in words) [2],"HSP Induction by Heat Shock Treatment, HPS40 (HSP40)","HSP Induction by Heat Shock Treatment, HSP47 (HSP47)","HSP Induction by Heat Shock Treatment, HSP70 (HSP70)","HSP Induction by Heat Shock Treatment, HSP90 (HSP90)","HSP Induction by Heat Shock Treatment, HSP100 (HSP100)",β-actin synthesis by Heat Shock Treatment (internal control) (β-actin),Surviving Fraction (%) (COLO320DM cells),No-Movement Period [3] [s],Suppression Rate (%) [3] [%],Expression Rate (%) Transformant A ([1]; 100 μM) [%],Expression Rate (%) Transformant B (SV40 early promoter; 100 μM) [%],"Mean days before tumor tripled ([4]; 200 mg/kg i.p. 6 hours before first heating, 44° C. 10 min (H1), 8 hr, 30 min (H2)) [days]","Mean days before tumor tripled ([4]; 200 mg/kg i.p., 44° C., 30 min heating) [days]","Mean days before tumor tripled ([4]; 200 mg/kg intraperitoneally once, no heating) [days]"
O=C1NCC/C1=C\c1ccc2c(c1)OCO2 [Compound 101],46,1,90,61,0.03,specifically and significantly suppressed,↓↓↓,↓↓↓,↓↓↓,↓↓↓,↓↓↓,no change,<1,145,29,,,,,
O=CN1CC/C(=C\c2ccc3c(c2)OCO3)C1=O [Compound 102],57,3,88,75,0.04,specifically and significantly suppressed,↓↓↓,↓↓↓,↓↓↓,↓↓↓,↓↓↓,no change,<1,,,0,69,12.6,13.3,8.4
O=C1NCCC/C1=C\c1ccc2c(c1)OCO2 [Compound 103],47,10,93,62,0.1,specifically and significantly suppressed,↓↓↓,↓↓↓,↓↓↓,↓↓↓,↓↓↓,no change,<1,90,56,2,46,,,
"CC(=O)N1CCC(=Cc2ccc3c(c2)OCO3)C1=O [Compound C, 1-acetyl-3-benzo-(1,3)dioxole-5-ylmethylene-pyrrolidin-2-one]",40,11,91,88,,,,,,,,,,,,,,,,
"CN(C)CCCN1c2ccccc2CCc2ccccc21 [Imipramine, imipramine, reference compound]",,,,,,,,,,,,,,180,12,,,,,
"O=c1c(O)c(-c2ccc(O)c(O)c2)oc2cc(O)cc(O)c12 [Quercetin, quercetin, reference compound]",99,25,96,82,0.4,,↓↓,↓↓,↓,↓,↓,no change,6,,,6,58,,,
